Assay results as given in patent publication US20260293897A1, “COMPOUND CONTAINING FIVE-MEMBERED HETEROCYCLE, PREPARATION METHOD THEREFOR, AND APPLICATION THEREOF” (QINGDAO KANGQIAO PESTICIDES AND CHEMICALS GROUP CO., LTD., priority 2022, published 2026).
Read-outs that look alike come from different tables or passages of the source.

Key:
Format in all cases: in vivo
Tetranychus cinnabarinus = Tetranychus cinnabarinus Controlling Activity Test; conditions: 72 h; for mortality at 1.6 ppm: read-out: mortality against Tetranychus cinnabarinus; for mortality at 1.56 ppm / mortality at 3.125 ppm / mortality at 6.25 ppm / mortality at 12.5 ppm: in Phaseolus vulgaris
Protocol: Tetranychus cinnabarinus Controlling Activity Test:
The test compound was dissolved in acetone and diluted to the desired concentration with 0.1 wt % aqueous tween 80, the acetone content not exceeding 5 wt %.
One real leaf was removed from kidney bean seedlings grown to two real leaves, inoculating Tetranychus cinnabarinus, investigating the base number, performing whole plant spraying treatment by using a handheld sprayer, repeating the treatment for 3 times (the application amount of the preparation is about 0.5 g), observing in a constant-temperature observation room after the treatment, investigating the number of live mites after 72 hours, and calculating the mortality. The number of Tetranychus cinnabarinus inoculated in each time is 35-100.
Mortality%=(number of inoculated insects−number of live insects after drug administration)÷number of inoculated insects×100%

[1] = test system: Frankliniella occidentalis larvae; assay: Frankliniella occidentalis Larva Controlling Activity Test; conditions: for mortality at 3.25 ppm: read-out: mortality for Frankliniella occidentalis larvae
Protocol: Frankliniella occidentalis Larva Controlling Activity Test:
The test compound is dissolved in acetone and diluted to the desired concentration. 0.5 mL of the prepared acetone medicinal liquid is added into a glass tube (the inner diameter is 1 cm, the length is 10 cm), and the glass tube is repeatedly rolled on a flat table until the acetone solution is completely volatilized. Soaking cabbage leaves in the liquid medicine with the corresponding concentration for 15 s, drying, placing in a glass tube, inoculating 10-20 heads of Frankliniella occidentalis larvae in the glass tube, repeating the treatment for three times, observing in a constant-temperature observation room after the treatment, investigating the number of live insects after 72 hours, and calculating the mortality.

[2] = test system: Sensitive Plutella xylostella; assay: Sensitive Plutella xylostella Controlling Activity Test
Excerpt: Sensitive Plutella xylostella Controlling Activity Test:
Test targets: Plutella xylostella, 3 rd instar larvae, a sensitive strain raised indoors.
The test method comprises the following steps: selecting fresh cabbage leaves cultivated in a greenhouse, making the cabbage leaves into round with the diameter of 3 cm by using a puncher, putting the circular blade into prepared liquid medicine to be soaked for 10 s according to the sequence from low dose to high dose of experimental design, naturally drying the cabbage leaves in the shade, putting the soaked cabbage leaves into a culture dish with filter paper and the diameter of 9 cm, inoculating regular healthy test insects, n=10, repeating the treatment for 3 times, and additionally setting blank control.

[3] = test system: Resistant Plutella xylostella; assay: Resistant Plutella xylostella Controlling Activity Test; conditions: Plutella xylostella, in Raphanus sativus, 72 h
Protocol: Resistant Plutella xylostella Controlling Activity Test:
Leaf dipping method was used, the appropriate amount of radish leaves were dipped into the drug for 10 s, placed in a plastic petri dish padded with filter paper and dried naturally, each dish was connected with 10 heads of 2nd instar small cabbage moths, placed in the observation room at 24° C. and light (16/8 h). 72 h later observation was made, and the body of the insect was touched lightly with a brush and no reaction was regarded as a dead insect, which was repeated for three times, and a blank control was also set up without any additional agent.

Spodoptera frugiperda = Spodoptera frugiperda Indoor Toxicity Determination Test; conditions: in Zea mays, read-out: mortality against Spodoptera frugiperda
Excerpt: Spodoptera frugiperda Indoor Toxicity Determination Test
Test targets: Spodoptera frugiperda, 3rd instar larvae, a sensitive strain raised indoors.
The test method comprises the following steps: firstly, selecting fresh corn leaves cultivated in a greenhouse, cutting the fresh corn leaves into 5 cm-long leaf segments, sequentially arranging the test design from low dose to high dose, soaking the fresh corn leaves in prepared liquid medicine for 10 s, naturally drying the fresh corn leaves in the shade, then placing the dried corn leaves in a culture dish with filter paper and the diameter of 9 cm, inoculating regular healthy test insects, n=10, repeating the treatment for 3 times, and additionally arranging blank control.

Phyllotreta striolata = Phyllotreta striolata Controlling Activity Test; conditions: 72 h, read-out: mortality against Phyllotreta striolata
Protocol: Phyllotreta striolata Controlling Activity Test:
Preparing liquid medicine according to the experimental design concentration, selecting fresh cabbage leaves, soaking the cabbage leaves for 15 s, taking out, airing, placing in a glass tube, connecting 20-25 heads of the Flea beetles adults with each tube, repeating the treatment for 3 times, investigating the death condition of the Phyllotreta striolata after 72 hours, and calculating and correcting the death rate.

[4] = read-out: mortality against Plutella xylostella
[5] = 3.25 ppm (3.125 mg/L), larvae, 72 hours
[6] = 1 ppm (1 mg/L), 3rd instar larvae, sensitive strain, read-out: mortality against Plutella xylostella

## CC(=O)N(C(=O)c1ccc(C2=NOC(c3cc(Cl)c(F)c(Cl)c3)(C(F)(F)F)C2)cc1C)C1CCS(=O)(=O)C1 (centres unmarked) [Compound I-9, N-acetyl-4-(5-(3,5-dichloro-4-fluorophenyl)-5-(trifluoromethyl)-4,5-dihydroisoxazol-3-yl)-N-(1,1-dioxotetrahydrothiophen-3-yl)-2-methylbenzamide]
Tetranychus cinnabarinus
  mortality at 1.6 ppm: > 90%
[1]; 72 h
  mortality at 3.25 ppm: > 90%
[2]; [4]
  mortality at 1 ppm: > 90%
[3]
  mortality at 0.2 ppm: 43.3%
  mortality at 1 ppm: 100%
  mortality at 5 ppm: 100%

## CCC(=O)N(C(=O)c1ccc(C2=NOC(c3cc(Cl)c(F)c(Cl)c3)(C(F)(F)F)C2)cc1C)C1CCS(=O)(=O)C1 (centres unmarked) [Compound I-10, N-propionyl-4-(5-(3,5-dichloro-4-fluorophenyl)-5-(trifluoromethyl)-4,5-dihydroisoxazol-3-yl)-N-(1,1-dioxotetrahydrothiophen-3-yl)-2-methylbenzamide]
Tetranychus cinnabarinus
  mortality at 1.6 ppm: > 90%
  mortality at 1.56 ppm: 97.2%
  mortality at 3.125 ppm: 100%
  mortality at 6.25 ppm: 100%
  mortality at 12.5 ppm: 100%
Spodoptera frugiperda
  mortality at 1 ppm: > 90%
[1]; 72 h
  mortality at 3.25 ppm: > 90%
[1]; in Brassica oleracea, 72 h
  mortality at 1.56 ppm: 92%
  mortality at 3.125 ppm: 100%
  mortality at 6.25 ppm: 100%
[2]; [4]
  mortality at 1 ppm: > 90%

## Cc1cc(C2=NOC(c3cc(Cl)c(F)c(Cl)c3)(C(F)(F)F)C2)ccc1C(=O)NC1CS(=O)(=O)C1 (centres unmarked) [X.82, reference compound]
[1]; 1.56 ppm, larvae, cabbage leaves soaked 15 s, 72 hours, read-out: Mortality (%)
  mortality at 1.56 ppm: 0%
[1]; 3.125 ppm, larvae, cabbage leaves soaked 15 s, 72 hours, read-out: Mortality (%)
  mortality at 3.125 ppm: 0%
[1]; 6.25 ppm, larvae, cabbage leaves soaked 15 s, 72 hours, read-out: Mortality (%)
  mortality at 6.25 ppm: 65%
[2]; 72 h, 0.333 ppm, 3rd instar larvae, sensitive strain, cabbage leaves soaked 10 s, three days, read-out: Mortality (%)
  mortality at 0.333 ppm: 0%
[2]; 72 h, 1 ppm, 3rd instar larvae, sensitive strain, cabbage leaves soaked 10 s, three days, read-out: Mortality (%)
  mortality at 1 ppm: 10%

## CO/N=C/NC(=O)c1ccc(C2=NOC(c3cc(Cl)cc(Cl)c3)(C(F)(F)F)C2)cc1C (centres unmarked) [Fluxametamide, 4-[5-(3,5-dichlorophenyl)-4,5-dihydro-5-(trifluoromethyl)-3-isoxazolyl]-N-[(methoxyamino)methylene]-2-methylbenzamide, reference compound]
Tetranychus cinnabarinus
  mortality at 1.56 ppm: 0%
  mortality at 3.125 ppm: 25.6%
  mortality at 6.25 ppm: 81.5%
  mortality at 12.5 ppm: 96.8%
[1]; in Brassica oleracea, 72 h
  mortality at 1.56 ppm: 0%
  mortality at 3.125 ppm: 0%
  mortality at 6.25 ppm: 0%
[2]; in Brassica oleracea, 72 h
  mortality at 0.333 ppm: 0%
  mortality at 1 ppm: 5%
[3]
  mortality at 0.2 ppm: 3.33%
  mortality at 1 ppm: 93.3%
  mortality at 5 ppm: 100%

## Cc1cc(C2=NOC(c3cc(Cl)c(F)c(Cl)c3)(C(F)(F)F)C2)ccc1C(=O)N(C(=O)C1CC1)C1CCS(=O)(=O)C1 (centres unmarked) [Compound I-22, N-cyclopropanoyl-4-(5-(3,5-dichloro-4-fluorophenyl)-5-(trifluoromethyl)-4,5-dihydroisoxazol-3-yl)-N-(1,1-dioxotetrahydrothiophen-3-yl)-2-methylbenzamide]
[1]; 72 h
  mortality at 3.25 ppm: > 90%
[2]; [4]
  mortality at 1 ppm: > 90%

## Cc1cc(C2=NOC(c3cc(Cl)c(F)c(Cl)c3)(C(F)(F)F)C2)ccc1C(=O)N[C@@H]1CCS(=O)(=O)C1 (stereo partly drawn) [Compound I-14, 4-(5-(3,5-dichloro-4-fluorophenyl)-5-(trifluoromethyl)-4,5-dihydroisoxazol-3-yl)-N—((R)-1,1-dioxotetrahydrothiophen-3-yl)-2-methylbenzamide]
Tetranychus cinnabarinus
  mortality at 1.6 ppm: > 90%
  mortality at 1.56 ppm: 100%
  mortality at 3.125 ppm: 100%
  mortality at 6.25 ppm: 100%
  mortality at 12.5 ppm: 100%
Spodoptera frugiperda
  mortality at 1 ppm: > 90%
Phyllotreta striolata
  mortality at 50 ppm: > 90%
[1]; 72 h
  mortality at 3.25 ppm: > 90%
[2]; [4]
  mortality at 1 ppm: > 90%

## Cc1cc(C2=NOC(c3cc(Cl)c(F)c(Cl)c3)(C(F)(F)F)C2)ccc1C(=O)NC1CCSC1 (centres unmarked) [Compound I-23]
[1]; [5]
  mortality at 3.25 ppm: > 90%
[2]; [6]
  mortality at 1 ppm: > 90%

## Cc1cc(C2=NO[C@@](c3cc(Cl)c(F)c(Cl)c3)(C(F)(F)F)C2)ccc1C(=O)NC1CCS(=O)(=O)C1 (stereo partly drawn) [Compound I-17, 4-((S)-5-(3,5-dichloro-4-fluorophenyl)-5-(trifluoromethyl)-4,5-dihydroisoxazol-3-yl)-N-(1,1-dioxotetrahydrothiophen-3-yl)-2-methylbenzamide]
Tetranychus cinnabarinus
  mortality at 1.6 ppm: > 90%
  mortality at 1.56 ppm: 100%
  mortality at 3.125 ppm: 100%
  mortality at 6.25 ppm: 100%
  mortality at 12.5 ppm: 100%
Phyllotreta striolata
  mortality at 50 ppm: > 90%
[1]; 72 h
  mortality at 3.25 ppm: > 90%
[2]; [4]
  mortality at 1 ppm: > 90%

## Cc1cc(C2=NOC(c3cc(Cl)c(F)c(Cl)c3)(C(F)(F)F)C2)ccc1C(=O)N(C(=O)C(C)C)C1CCS(=O)(=O)C1 (centres unmarked) [Compound I-21, N-isopropionyl-4-(5-(3,5-dichloro-4-fluorophenyl)-5-(trifluoromethyl)-4,5-dihydroisoxazol-3-yl)-N-(1,1-dioxotetrahydrothiophen-3-yl)-2-methylbenzamide]
[1]; 72 h
  mortality at 3.25 ppm: > 90%
[2]; [4]
  mortality at 1 ppm: > 90%

## Cc1cc(C2=NO[C@@](c3cc(Cl)c(F)c(Cl)c3)(C(F)(F)F)C2)ccc1C(=O)N[C@@H]1CCS(=O)(=O)C1 [Compound I-16]
[1]; [5]
  mortality at 3.25 ppm: > 90%
[2]; [6]
  mortality at 1 ppm: > 90%

## Cc1cc(C2=NO[C@@](c3cc(Cl)c(F)c(Cl)c3)(C(F)(F)F)C2)ccc1C(=O)N[C@H]1CCS(=O)(=O)C1 [Compound I-15]
[1]; [5]
  mortality at 3.25 ppm: > 90%
[2]; [6]
  mortality at 1 ppm: > 90%

## Cc1cc(C2=NO[C@](c3cc(Cl)c(F)c(Cl)c3)(C(F)(F)F)C2)ccc1C(=O)N[C@H]1CCS(=O)(=O)C1 [Compound I-18]
[1]; [5]
  mortality at 3.25 ppm: > 90%
[2]; [6]
  mortality at 1 ppm: > 90%

## Cc1cc(C2=NOC(c3cc(Cl)c(Cl)c(Cl)c3)(C(F)(F)F)C2)ccc1C(=O)NC1CCS(=O)(=O)C1 (centres unmarked) [Compound I-3, N-(1,1-dioxotetrahydrothiophen-3-yl)-2-methyl-4-(5-(3,4,5-trichlorophenyl)-5-(trifluoromethyl)-4,5-dihydroisoxazol-3-yl) benzamide]
Tetranychus cinnabarinus
  mortality at 1.6 ppm: > 90%
[1]; 72 h
  mortality at 3.25 ppm: > 90%
[2]; [4]
  mortality at 1 ppm: > 90%

## Cc1cc(C2=NOC(c3cc(Cl)c(F)c(Cl)c3)(C(F)(F)F)C2)ccc1C(=O)N[C@H]1CCS(=O)(=O)C1 (stereo partly drawn) [Compound I-13, 4-(5-(3,5-dichloro-4-fluorophenyl)-5-(trifluoromethyl)-4,5-dihydroisoxazol-3-yl)-N—((S)-1,1-dioxotetrahydrothiophen-3-yl)-2-methylbenzamide]
[1]; 72 h
  mortality at 3.25 ppm: > 90%
[2]; [4]
  mortality at 1 ppm: > 90%

## CNC(=O)c1cc(Cl)cc(C)c1NC(=O)c1cc(Br)nn1-c1ncccc1Cl [Chlorantraniliprole, reference compound]
[3]
  mortality at 0.2 ppm: 33.3%
  mortality at 1 ppm: 40%
  mortality at 5 ppm: 66.7%
